Drawing on patent US8975406B2, “Compound useful for the treatment of degenerative and inflammatory diseases” (Galapagos N.V., priority 2011, dated 2015), this text covers IC50 for eight molecules.

One may read the IC50 as the point on the concentration scale where inhibition reaches its midpoint.

For test [1], the target named is T1, Recombinant human JAK1 catalytic domain (Homo sapiens, UniProt P23458).
T1 construct: catalytic domain (amino acids 866-1154; catalog number PV4774); purchased Invitrogen PV4774
T1 sequence (P23458 866-1154): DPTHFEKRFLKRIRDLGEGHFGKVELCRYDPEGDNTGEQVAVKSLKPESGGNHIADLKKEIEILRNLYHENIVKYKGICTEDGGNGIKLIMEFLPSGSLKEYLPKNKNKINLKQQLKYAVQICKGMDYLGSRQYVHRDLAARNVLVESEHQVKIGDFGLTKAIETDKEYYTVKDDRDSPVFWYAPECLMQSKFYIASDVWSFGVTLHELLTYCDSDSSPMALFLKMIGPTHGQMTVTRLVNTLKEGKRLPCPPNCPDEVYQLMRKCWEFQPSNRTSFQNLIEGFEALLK
The test can be described thus: JAK1 assay polyGT substrate. The class given is biochemical. As to conditions: 33P-gamma-ATP filter assay, 2 μM ATP. On the procedure:
Recombinant human JAK1 catalytic domain (amino acids 866-1154; catalog number PV4774) was purchased from Invitrogen. 25 ng of JAK1 was incubated with 6.25 μg polyGT substrate (Sigma catalog number P0275) in kinase reaction buffer (15 mM Hepes pH7.5, 0.01% Tween20, 10 mM MgCl2, 2 μM non-radioactive ATP, 0.25 μCi ^33P-gamma-ATP (Perkin Elmer, catalog number NEG602K001MC) final concentrations) with or without 5 μL containing test compound or vehicle (DMSO, 1% final concentration), in a total volume of 25 μL, in a polypropylene 96-well plate (Greiner, V-bottom). After 75 min at 30° C., reactions were stopped by adding of 25 μL/well of 150 mM phosphoric acid. All of the terminated kinase reaction was transferred to prewashed (75 mM phosphoric acid) 96 well filter plates (Perkin Elmer catalog number 6005177) using a cell harvester (Perkin Elmer). Plates were washed 6 times with 300 μL per well of a 75 mM phosphoric acid solution and the bottom of the plates was sealed. 40 μL/well of Microscint-20 was added, the top of the plates was sealed and readout was performed using the Topcount (Perkin Elmer). Kinase activity was calculated by subtracting counts per min (cpm) obtained in the presence of a positive control inhibitor (10 μM staurosporine) from cpm obtained in the presence of vehicle. The ability of a test compound to inhibit this activity was determined as: Percentage inhibition=((cpm determined for sample with test compound present−cpm determined for sample with positive control inhibitor)divided by(cpm determined in the presence of vehicle−cpm determined for sample with positive control inhibitor))*100.
Dose dilution series were prepared for the compounds enabling the testing of dose-response effects in the JAK1 assay and the calculation of the IC50 for each compound. Each compound was routinely tested at concentration of 20 μM followed by a ⅓ serial dilution, 8 points (20 μM-6.67 μM-2.22 μM-740 nM-247 nM-82 nM-27 nM-9 nM) in a final concentration of 1% DMSO. When potency of compound series increased, more dilutions were prepared and/or the top concentration was lowered (e.g. 5 μM, 1 μM).

Test [2] deals with T2, Recombinant human JAK2 catalytic domain (Homo sapiens, UniProt O60674).
T2 construct: catalytic domain (amino acids 808-1132; catalog number PV4210); GST; purchased Invitrogen PV4210
T2 sequence (O60674 808-1132): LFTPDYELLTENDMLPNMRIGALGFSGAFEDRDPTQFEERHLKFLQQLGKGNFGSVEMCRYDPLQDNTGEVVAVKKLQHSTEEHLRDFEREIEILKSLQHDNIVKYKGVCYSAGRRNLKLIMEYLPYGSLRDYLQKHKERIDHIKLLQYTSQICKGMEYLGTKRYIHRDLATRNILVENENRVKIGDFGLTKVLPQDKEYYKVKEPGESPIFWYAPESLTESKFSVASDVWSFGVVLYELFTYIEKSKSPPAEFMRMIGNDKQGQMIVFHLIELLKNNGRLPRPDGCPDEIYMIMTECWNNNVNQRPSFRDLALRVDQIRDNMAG
The test can be described thus: JAK2 assay polyGT substrate. It counts as biochemical. Particulars: 33P-gamma-ATP filter assay, 1 μM ATP. How it is done: Recombinant human JAK2 catalytic domain (amino acids 808-1132; catalog number PV4210) was purchased from Invitrogen. 0.05 mU of JAK2 was incubated with 2.5 μg polyGT substrate (Sigma catalog number P0275) in kinase reaction buffer (10 mM MOPS pH 7.5, 0.5 mM EDTA, 0.01% Brij-35, 1 mM DTT, 15 mM MgAc, 1 μM non-radioactive ATP, 0.25 μCi ^33P-gamma-ATP (Perkin Elmer, catalog number NEG602K001MC) final concentrations) with or without 5 μL containing test compound or vehicle (DMSO, 1% final concentration), in a total volume of 25 μL, in a polypropylene 96-well plate (Greiner, V-bottom). After 90 min at 30° C., reactions were stopped by adding of 25 μL/well of 150 mM phosphoric acid. All of the terminated kinase reaction was transferred to prewashed (75 mM phosphoric acid) 96 well filter plates (Perkin Elmer catalog number 6005177) using a cell harvester (Perkin Elmer). Plates were washed 6 times with 300 μL per well of a 75 mM phosphoric acid solution and the bottom of the plates was sealed. 40 μL/well of Microscint-20 was added, the top of the plates was sealed and readout was performed using the Topcount (Perkin Elmer). Kinase activity was calculated by subtracting counts per min (cpm) obtained in the presence of a positive control inhibitor (10 μM staurosporine) from cpm obtained in the presence of vehicle. The ability of a test compound to inhibit this activity was determined as: Percentage inhibition=((cpm determined for sample with test compound present−cpm determined for sample with positive control inhibitor)divided by(cpm determined in the presence of vehicle−cpm determined for sample with positive control inhibitor))*100.
Dose dilution series were prepared for the compounds enabling the testing of dose-response effects in the JAK2 assay and the calculation of the IC50 for each compound. Each compound was routinely tested at concentration of 20 μM followed by a ⅓ serial dilution, 8 points (20 μM-6.67 μM-2.22 μM-740 nM-247 nM-82 nM-27 nM-9 nM) in a final concentration of 1% DMSO. When potency of compound series increased, more dilutions were prepared and/or the top concentration was lowered (e.g. 5 μM, 1 μM).

Test [3] concerns JAK-STAT signalling in HeLa cells. Put plainly: JAK-STAT signalling assay (pSTAT1(2)-luciferase reporter, OSM-triggered HeLa cells). It counts as cell-based. As to conditions: human OSM 33 ng/mL. On the procedure: HeLa cells were maintained in Dulbecco's Modified Eagle's Medium (DMEM) containing 10% heat inactivated fetal calf serum, 100 U/mL penicillin and 100 μg/mL streptomycin. HeLa cells were used at 70% confluence for transfection. 20,000 cells in 87 μL cell culture medium were transiently transfected with 40 ng pSTAT1(2)-luciferase reporter (Panomics), 8 ng of LacZ reporter as internal control reporter and 52 ng of pBSK using 0.32 μL Jet-PEI (Polyplus) as transfection reagent per well in 96-well plate format. After overnight incubation at 37° C., 5% CO2, transfection medium was removed. 81 μL of DMEM+1.5% heat inactivated fetal calf serum was added. 9 μL compound at 10× concentration was added for 60 min and then 10 μL of human OSM (Peprotech) at 33 ng/mL final concentration.
All compounds were tested in duplicate starting from 20 μM followed by a ⅓ serial dilution, 8 doses in total (20 μM-6.6 μM-2.2 μM-740 nM-250 nM-82 nM-27 nM-9 nM) in a final concentration of 0.2% DMSO.
After overnight incubation at 37° C., 5% CO2 cells were lysed by adding 100 μL lysis buffer/well (PBS, 0.9 mM CaCl2, 0.5 mM MgCl2, 10% Trehalose, 0.05% Tergitol NP9, 0.3% BSA).
40 μL of cell lysate was used to read β-galactosidase activity by adding 180 μL β-Gal solution (30 μl ONPG 4 mg/mL+150 μL β-Galactosidase buffer (0.06 M Na2HPO4, 0.04 M NaH2PO4, 1 mM MgCl2)) for 20 min. The reaction was stopped by addition of 50 μL Na2CO3 1 M. Absorbance was read at 405 nm.
Luciferase activity was measured using 40 μL cell lysate plus 40 μL of Steadylite® as described by the manufacturer (Perkin Elmer), on the Envision (Perkin Elmer).
Omitting OSM was used as a positive control (100% inhibition). As negative control 0.5% DMSO (0% inhibition) was used. The positive and negative controls were used to calculate z′ and ‘percent inhibition’ (PIN) values. Percentage inhibition=((fluorescence determined in the presence of vehicle−fluorescence determined for sample with test compound present)divided by(fluorescence determined in the presence of vehicle−fluorescence determined for sample without trigger))*100.
PIN values were plotted for compounds tested in dose-response and EC50 values were derived.
(In general: Reporter assays use an easily measured gene product as a stand-in for the process of interest.)

Consider `O=C(Nc1cc2c(-c3ccc(OCc4ccccc4)cc3)cccn2n1)C1CC1` [Compound 2, N-(4-(4-(benzyloxy)phenyl)pyrazolo[1,5-a]pyridin-2-yl)cyclopropanecarboxamide], for which the IC50 in test [1] is 0.01 to 100 nM; in test [2] it was 101 to 500 nM.
For the molecule `COc1ccc(-c2cccn3nc(NC(=O)C4CC4)cc23)cc1` [Compound 1, N-(4-(4-methoxyphenyl)pyrazolo[1,5-a]pyridin-2-yl)cyclopropanecarboxamide], the IC50 in test [1] was 0.01 to 100 nM; in test [2], 0.01 to 100 nM; in test [3] it was greater than 1000 nM.
Regarding `O=C(NCCOc1ccccc1)c1ccc(-c2cccn3nc(NC(=O)C4CC4)cc23)cc1` [Compound 6, 4-(2-(cyclopropanecarboxamido)pyrazolo[1,5-a]pyridin-4-yl)-N-(2-phenoxyethyl)benzamide], the values for the IC50 in test [1], in test [2] and in test [3] were 0.01 to 100 nM, 0.01 to 100 nM and 101 to 500 nM, respectively.
Turning to `COc1ccc(-c2cccn3nc(NC(=O)C4CC4)c(-c4ccccc4)c23)cc1` [Compound 7, N-(4-(4-methoxyphenyl)-3-phenylpyrazolo[1,5-a]pyridin-2-yl)cyclopropanecarboxamide], the IC50 in test [1] and in test [2] was greater than 1000 nM throughout.
`O=C(Nc1cc2c(-c3ccc4[nH]ccc4c3)cccn2n1)C1CC1` [Compound 4, N-(4-(1H-indol-5-yl)pyrazolo[1,5-a]pyridin-2-yl)cyclopropanecarboxamide]: the IC50 is 0.01 to 100 nM in test [1], 0.01 to 100 nM in test [2] and greater than 1000 nM in test [3].
With `O=C(Nc1cc2c(-c3ccc4c(ccn4Cc4ccccc4)c3)cccn2n1)C1CC1` [Compound 3, N-(4-(1-benzyl-1H-indol-5-yl)pyrazolo[1,5-a]pyridin-2-yl)cyclopropanecarboxamide], the figures for the IC50 in test [1], in test [2] and in test [3] were 0.01 to 100 nM, 101 to 500 nM and greater than 1000 nM, respectively.
Taken in the same sequence, the figures for `O=C(NCCc1ccccc1)c1ccc(-c2cccn3nc(NC(=O)C4CC4)cc23)cc1` [Compound 5, 4-(2-(cyclopropanecarboxamido)pyrazolo[1,5-a]pyridin-4-yl)-N-phenethylbenzamide] were 0.01 to 100 nM, 0.01 to 100 nM and 101 to 500 nM.
Taken in the same sequence, the figures for `O=C(Nc1cc2c(-c3ccc(OCc4cccnc4)cc3)cccn2n1)C1CC1` [Compound 8, N-(4-(4-(pyridin-3-ylmethoxy)phenyl)pyrazolo[1,5-a]pyridin-2-yl)cyclopropanecarboxamide] were 0.01 to 100 nM, 0.01 to 100 nM and greater than 1000 nM.
